Results as given in ChEMBL document CHEMBL4831503, “Design, synthesis, in vitro and in vivo anti-respiratory syncytial virus (RSV) activity of novel oxizine fused benzimidazole derivatives” (Eur J Med Chem, 2021).
Activity calls are given as the source filed them. The calls are words filed in the database; no cut-off is given here.

How the values were obtained:
[1] = test system: Respiratory syncytial virus; assay: Antiviral activity against Respiratory syncytial virus infected in human HEp-2 cells assessed as reduction in RSV-F gene expression at 25 uM measured after 24 to 60 hpi by RT-PCR analysis; assay type: functional, organism-based; conditions: time 24-60 hrs
HEp-2 [2] = assay: Induction of apoptosis in human HEp-2 cells assessed as late apoptotic cells at 25 uM measured after 60 hrs by Annexin V-FITC/PI staining based flow cytometry analysis (reference value: 1.6%); assay type: functional
[3] = test system: Respiratory syncytial virus; assay: Inhibition of RSV induced apoptosis in human HEp-2 cells assessed as reduction in cleaved caspase-9 expression measured after 48 hrs by Western blot analysis; assay type: functional, organism-based
[4] = Inhibition of RSV induced ROS production in human HEp-2 cells assessed as reduction in accumulation of ROS-positive cells at 25 uM measured after 36 hrs by DCHF-DA staining based flow cytometry analysis (reference value: 82.2%); assay type: functional, Respiratory syncytial virus; parameters: scale not given: the % may be the effect or the level left
[5] = test system: Respiratory syncytial virus; assay: Antiviral activity against RSV Long infected in BALB/c mouse assessed as reduction in lung tissue damage by measuring lung index at 25 to 100 mg/kg/day measured after 2 days of virus infection; assay type: functional, organism-based; conditions: dose 25-100 mg/kg/day, time 2.0 day
[6] = test system: Respiratory syncytial virus; assay: Antiviral activity against Respiratory syncytial virus infected in human HEp-2 cells assessed as inhibition of virus infected cells induced lesion formation at 25 uM measured after 60 hrs by microscopic analysis; assay type: functional, organism-based
[7] = test system: Respiratory syncytial virus; assay: Inhibition of RSV induced apoptosis in human HEp-2 cells assessed as early apoptotic cells at 25 uM measured after 60 hrs by Annexin V-FITC/PI staining based flow cytometry analysis (reference value: 10.3%); assay type: functional; parameters: scale not given: the % may be the effect or the level left
[8] = Selectivity index, ratio of CC50 for human HEp-2 cells to EC50 for Respiratory syncytial virus infected in human HEp-2 cells; assay type: toxicity, cell-based; conditions: read-out: Selectivity Index
[9] = test system: Respiratory syncytial virus; assay: Inhibition of RSV induced apoptosis in human HEp-2 cells assessed as late apoptotic cells at 50 uM measured after 60 hrs by Annexin V-FITC/PI staining based flow cytometry analysis (reference value: 20.2%); assay type: functional; parameters: scale not given: the % may be the effect or the level left
[10] = test system: Respiratory syncytial virus; assay: Inhibition of RSV induced apoptosis in human HEp-2 cells assessed as reduction in PARP cleavage measured after 48 hrs by Western blot analysis; assay type: functional, organism-based
HEp-2 [11] = assay: Induction of apoptosis in human HEp-2 cells assessed as early apoptotic cells at 25 uM measured after 60 hrs by Annexin V-FITC/PI staining based flow cytometry analysis (reference value: 0.1%); assay type: functional
[12] = test system: Respiratory syncytial virus; assay: Antiviral activity against RSV infected in BALB/c mouse assessed as downregulation of IL-6 expression in lung tissue infected with RSV at 25 to 100 mg/kg/day measured after 2 days post infection by RT-PCR analysis; assay type: functional, organism-based; conditions: dose 25-100 mg/kg/day, time 2.0 day
[13] = test system: Respiratory syncytial virus; assay: Antiviral activity against Respiratory syncytial virus infected in human HEp-2 cells assessed as reduction in viral infection incubated for 60 hrs by MTT assay; assay type: functional, organism-based; conditions: dose 3.125-50 µM
Human orthopneumovirus = assay: Antiviral activity against Respiratory syncytial virus A2 infected in African green monkey Vero cells assessed as reduction in viral infection incubated for 60 hrs by MTT assay; assay type: functional, organism-based
[14] = test system: Respiratory syncytial virus; assay: Inhibition of RSV induced apoptosis in human HEp-2 cells assessed as reversal of virus induced increase in Bax/Bcl-2 ratio at 25 to 50 uM measured after 36 hrs by Western blot analysis; assay type: functional, organism-based; conditions: dose 25-50 µM
[15] = test system: Respiratory syncytial virus; assay: Inhibition of RSV induced apoptosis in human HEp-2 cells assessed as reduction in cleaved caspase-3 expression measured after 60 hrs by Western blot analysis; assay type: functional, organism-based
[16] = test system: Respiratory syncytial virus; assay: Antiviral activity against RSV infected in BALB/c mouse assessed as downregulation of TNF-alpha expression in lung tissue infected with RSV at 25 to 100 mg/kg/day measured after 2 to 6 days post infection by RT-PCR analysis; assay type: functional, organism-based; conditions: dose 25-100 mg/kg/day, time 2-6 day
[17] = test system: Respiratory syncytial virus; assay: Antiviral activity against RSV infected in human HEp-2 cells assessed as downregulation of NF-kappaB expression at 25 to 50 uM treated 48 hpi and measured after 48 hrs by Western blot analysis; assay type: functional, organism-based; conditions: dose 25-50 µM
[18] = test system: Respiratory syncytial virus; assay: Antiviral activity against RSV infected in BALB/c mouse assessed as downregulation of IRF3 expression in lung tissue infected with RSV at 25 to 100 mg/kg/day measured after 2 to 4 days post infection by RT-PCR analysis; assay type: functional, organism-based; conditions: dose 25-100 mg/kg/day, time 2-4 day
[19] = test system: Respiratory syncytial virus; assay: Antiviral activity against Respiratory syncytial virus Long infected in human A549 cells assessed as reduction in viral infection incubated for 60 hrs by MTT assay; assay type: functional, organism-based; conditions: A549, 60 h
[20] = test system: Respiratory syncytial virus; assay: Antiviral activity against RSV infected in BALB/c mouse assessed as downregulation of iNOS expression in lung tissue infected with RSV at 25 to 100 mg/kg/day measured after 2 to 6 days post infection by RT-PCR analysis; assay type: functional, organism-based; conditions: dose 25-100 mg/kg/day, time 2-6 day
[21] = test system: Respiratory syncytial virus; assay: Antiviral activity against RSV Long infected in BALB/c mouse assessed as reversal of virus infection induced weight loss at 25 to 100 mg/kg/day administered via gastric gavage once daily for 6 days; assay type: functional, organism-based; conditions: dose 25-100 mg/kg/day, time 6.0 day
[22] = test system: Respiratory syncytial virus; assay: Antiviral activity against RSV infected in BALB/c mouse assessed as downregulation of RIG-1 expression in lung tissue infected with RSV at 25 to 100 mg/kg/day measured after 2 to 4 days post infection by RT-PCR analysis; assay type: functional, organism-based; conditions: dose 25-100 mg/kg/day, time 2-4 day
[23] = test system: Respiratory syncytial virus; assay: Antiviral activity against RSV infected in human HEp-2 cells assessed as decrease in virus induced RIG-1 gene expression measured after 48 hrs by RT-PCR analysis; assay type: functional, organism-based
[24] = test system: Respiratory syncytial virus; assay: Antiviral activity against RSV infected in human HEp-2 cells assessed as decrease in virus induced TLR-3 gene expression measured after 48 hrs by RT-PCR analysis; assay type: functional, organism-based

Cc1c(Br)cc2nc3n(c2c1Br)[C@H]1OC[C@@H](O)[C@H]1OC3
Activity [1]: Active | Activity (HEp-2 [2]): 2.4% | inhibition [3]: Active | Activity [4]: 60.7% | Activity [5]: Active | Activity [6]: Active | Activity [7]: 12% | selectivity ratio [8]: 26.4 | Activity [9]: 2.2% | inhibition [10]: Active | Activity (HEp-2 [11]): 0.4% | Activity [12]: Active | Activity [13]: Dose-Dependent Effect | EC50 (Human orthopneumovirus): 15.5 µM | inhibition [14]: Active | inhibition [15]: Active | Activity [16]: Active | Activity [17]: Active | Activity [18]: Active | EC50 [19]: 13.3 µM | Activity [20]: Active | Activity [21]: Active | Activity [22]: Active | Activity [23]: Dose-Dependent Effect | Activity [24]: Dose-Dependent Effect
